assay: recombinant barcode read abundance after kanamycin selection (control-corrected) (log10(CPM+1)); higher = more efficient recombination; sequences stand for … in AGTGCAGAGAAAATCGGCCAGTTTTCTCTGCCTGCAGTCCGCATGCCGT…AGATTTATGCAGCGGACTGCCTTTCTCCCAAAGTGATAAACCGGACAGTATCATGGACCGGTTTTCCCGGTAATCCGTATTTGCAAGGTTGGTTTCACT; site = the 11-nt target
Procedure, shortened: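 The screen was pooled in E. coli and paired targets with IS621 bridge RNA target-binding loops. Recombination efficiency is taken from barcode counts per million at recombinant junctions, averaged and adjusted against the control. Values, in the form log10(CPM+1), come from duplicate plating on chloramphenicol/ampicillin LB agar or on chloramphenicol/ampicillin/kanamycin with 0.1 mM IPTG.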
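Also: IS621 recombinase and bridge RNA in Escherichia coli cells.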

Row | Sequence | recombinant barcode read abundance (log10)
1 | GCCGGGCCTTGGGTTCTAACCTGTTGCCT (site GCCGGGCCTAG) | 0.265
2 | GCCGGGCCTTGGGTTCTAACCTGTTGCCT (site GCTGCGCCTAG) | 0.0616
3 | GCCGGGGCTTGGGTTCTAACCTGTTGCCG (site GCCAGGGCTCG) | 0.262
4 | GCCGGGGCTTGGGTTCTAACCTGTTGCCG (site GCCCGGGCTCG) | 0.452
5 | GCCGGGGCTTGGGTTCTAACCTGTTGCCG (site GCCGGGGCTCG) | 0.186
6 | GCCGGGGCTTGGGTTCTAACCTGTTGCCG (site GCCTGGGCTCG) | 0.258
7 | GCCGTCCCTTGGGTTCTAACCTGTTGCTA (site GCCGTCCCTTA) | 0.202
8 | GCCGTCCCTTGGGTTCTAACCTGTTGCTA (site GTCGTCCCTTG) | 0.106
9 | GCCGTCTCTTGGGTTCTAACCTGTTGCCT (site GCCATCTCTAG) | 0.114
10 | GCCGTCTCTTGGGTTCTAACCTGTTGCCT (site GCCGTCTCTAG) | 0.135
11 | GCCTCGCCTTGGGTTCTAACCTGTTGCAG (site GCCACGCCTCT) | 0.341
12 | GCCTCGCCTTGGGTTCTAACCTGTTGCAG (site GCCCCGCCTCT) | 0.133
13 | GCCTCGCCTTGGGTTCTAACCTGTTGCAG (site GCCGCGCCTCT) | 0.326
14 | GCCTCGCCTTGGGTTCTAACCTGTTGCAG (site GCCTCGCCTCT) | 0.229
15 | GCCTGCCCTTGGGTTCTAACCTGTTGCTG (site GCCTGCCCTCA) | 1.51
16 | GCCTGCCCTTGGGTTCTAACCTGTTGCTG (site TGGGTGACTAG) | 0.0502
17 | GCGAAGTCTTGGGTTCTAACCTGTTGCTT (site GCGAACACTAA) | 0.0375
18 | GCGAAGTCTTGGGTTCTAACCTGTTGCTT (site GCGAAGTCTAA) | 1.15
19 | GCGAATCCTTGGGTTCTAACCTGTTGCCT (site GCGAATCCTAG) | 0.845
20 | GCGAATCCTTGGGTTCTAACCTGTTGCCT (site GCGCATCCTAG) | 0.213
21 | GCGAATCCTTGGGTTCTAACCTGTTGCCT (site GCGGATCCTAG) | 0.069
22 | GCGAATCCTTGGGTTCTAACCTGTTGCCT (site GCGTATCCTAG) | 0.099

Row | Sequence | recombinant barcode read abundance (log10)
23 | GCGACTCCTTGGGTTCTAACCTGTTGCAT (site GCGACTCCTAT) | 0.857
24 | GCGACTCCTTGGGTTCTAACCTGTTGCAT (site GCGCCTCCTAT) | 0.118
25 | GCGACTCCTTGGGTTCTAACCTGTTGCAT (site GCGGCTCCTAT) | 0.14
26 | GCGACTCCTTGGGTTCTAACCTGTTGCAT (site GCGTCTCCTAT) | 0.0718
27 | GCGACTCCTTGGGTTCTAACCTGTTGCTA (site GAGACTCCTTA) | 0.739
28 | GCGACTCCTTGGGTTCTAACCTGTTGCTA (site GCGACTCCTTA) | 0.619
29 | GCGAGCTCTTGGGTTCTAACCTGTTGCCT (site GCGAGCTCTAG) | 1.6
30 | GCGAGCTCTTGGGTTCTAACCTGTTGCCT (site GCGCGTTCTAG) | 0.291
31 | GCGATGTCTTGGGTTCTAACCTGTTGCCT (site GAGATGTCTAG) | 0.183
32 | GCGATGTCTTGGGTTCTAACCTGTTGCCT (site GCGATGTCTAG) | 1.33
33 | GCGATGTCTTGGGTTCTAACCTGTTGCCT (site GGGATGTCTAG) | 0.514
34 | GCGATGTCTTGGGTTCTAACCTGTTGCCT (site GTGATGTCTAG) | 0.116
35 | GCGCGGCCTTGGGTTCTAACCTGTTGCTT (site GCACGCCCTAA) | 0.0904
36 | GCGCGGCCTTGGGTTCTAACCTGTTGCTT (site GCGCGGCCTAA) | 0.492
37 | GCGCTAACTTGGGTTCTAACCTGTTGCCT (site GCGCTAACTAG) | 1.05
38 | GCGCTAACTTGGGTTCTAACCTGTTGCCT (site TCGCTAACTAG) | 0.169
39 | GCGCTCCCTTGGGTTCTAACCTGTTGCCT (site GCACTCCCTAG) | 1.25
40 | GCGCTCCCTTGGGTTCTAACCTGTTGCCT (site GCCCTCCCTAG) | 0.388
41 | GCGCTCCCTTGGGTTCTAACCTGTTGCCT (site GCGCTCCCTAG) | 0.926
42 | GCGCTCCCTTGGGTTCTAACCTGTTGCCT (site GCTCTCCCTAG) | 0.145
43 | GCGGACTCTTGGGTTCTAACCTGTTGCCA (site GCGGACTCTTG) | 2.09
44 | GCGGACTCTTGGGTTCTAACCTGTTGCCA (site GCGTACTCTAG) | 0.0401

Row | Sequence | recombinant barcode read abundance (log10)
45 | GCGGAGTCTTGGGTTCTAACCTGTTGCGT (site GCGGAGTCTAC) | 1.45
46 | GCGGAGTCTTGGGTTCTAACCTGTTGCGT (site GCTAAGTCTAC) | 0.0484
47 | GCGGATCCTTGGGTTCTAACCTGTTGCCT (site GCGAATCCTAG) | 0.824
48 | GCGGATCCTTGGGTTCTAACCTGTTGCCT (site GCGCATCCTAG) | 0.0111
49 | GCGGATCCTTGGGTTCTAACCTGTTGCCT (site GCGGATCCTAG) | 2.11
50 | GCGGATCCTTGGGTTCTAACCTGTTGCCT (site GCGTATCCTAG) | 1.05
51 | GCGGCGACTTGGGTTCTAACCTGTTGCCT (site GCAGCGACTAG) | 0.291
52 | GCGGCGACTTGGGTTCTAACCTGTTGCCT (site GCCGCGACTAG) | 0.162
53 | GCGGCGACTTGGGTTCTAACCTGTTGCCT (site GCGGCGACTAG) | 0.891
54 | GCGGCGACTTGGGTTCTAACCTGTTGCCT (site GCTGCGACTAG) | 0.0436
55 | GCGGGATCTTGGGTTCTAACCTGTTGCCT (site ACGGGATCTAG) | 0.765
56 | GCGGGATCTTGGGTTCTAACCTGTTGCCT (site CCGGGATCTAG) | 0.258
57 | GCGGGATCTTGGGTTCTAACCTGTTGCCT (site GCGGGATCTAG) | 1.06
58 | GCGGGATCTTGGGTTCTAACCTGTTGCCT (site TCGGGATCTAG) | 0.174
59 | GCGGGGTCTTGGGTTCTAACCTGTTGCTT (site GCAGGGTCTAA) | 2.65
60 | GCGGGGTCTTGGGTTCTAACCTGTTGCTT (site GCCGGGTCTAA) | 0.124
61 | GCGGGGTCTTGGGTTCTAACCTGTTGCTT (site GCGGGGTCTAA) | 2.2
62 | GCGGGGTCTTGGGTTCTAACCTGTTGCTT (site GCTGGGTCTAA) | 0.783
63 | GCGGGTCCTTGGGTTCTAACCTGTTGCCT (site GCAGGTCCTAG) | 2.24
64 | GCGGGTCCTTGGGTTCTAACCTGTTGCCT (site GCCGGTCCTAG) | 0.213
65 | GCGGGTCCTTGGGTTCTAACCTGTTGCCT (site GCGGGTCCTAG) | 2.15
66 | GCGGGTCCTTGGGTTCTAACCTGTTGCCT (site GCTGGTCCTAG) | 0.532

Row | Sequence | recombinant barcode read abundance (log10)
67 | GCGTCACCTTGGGTTCTAACCTGTTGCCT (site ACGTCACCTAG) | 0.0445
68 | GCGTCACCTTGGGTTCTAACCTGTTGCCT (site CCGTCACCTAG) | 0.0376
69 | GCGTCACCTTGGGTTCTAACCTGTTGCCT (site GCGTCACCTAG) | 0.394
70 | GCGTCACCTTGGGTTCTAACCTGTTGCCT (site TCGTCACCTAG) | 0.382
71 | GCGTGAGCTTGGGTTCTAACCTGTTGCCT (site GCATGAGCTAG) | 1.07
72 | GCGTGAGCTTGGGTTCTAACCTGTTGCCT (site GCCTGAGCTAG) | 0.151
73 | GCGTGAGCTTGGGTTCTAACCTGTTGCCT (site GCGTGAGCTAG) | 0.676
74 | GCGTGAGCTTGGGTTCTAACCTGTTGCCT (site GCTTGAGCTAG) | 0.0594
75 | GCGTGTCCTTGGGTTCTAACCTGTTGCCA (site CCGTGTCCTCG) | 0.0431
76 | GCGTGTCCTTGGGTTCTAACCTGTTGCCA (site GCGTGTCCTTG) | 0.335
77 | GCGTTGCCTTGGGTTCTAACCTGTTGCCT (site GAGTTGCCTAG) | 0.073
78 | GCGTTGCCTTGGGTTCTAACCTGTTGCCT (site GCGTTGCCTAG) | 0.213
79 | GCGTTGCCTTGGGTTCTAACCTGTTGCCT (site GGGTTGCCTAG) | 0.0557
80 | GCGTTGCCTTGGGTTCTAACCTGTTGCCT (site GTGTTGCCTAG) | 0.0893
81 | GCTAGTCCTTGGGTTCTAACCTGTTGCTG (site GCTAGTCCTAC) | 0.537
82 | GCTAGTCCTTGGGTTCTAACCTGTTGCTG (site GCTAGTCCTCA) | 0.83
83 | GCTCAGGCTTGGGTTCTAACCTGTTGCCT (site GCTCAGACTAG) | 0.142
84 | GCTCAGGCTTGGGTTCTAACCTGTTGCCT (site GCTCAGCCTAG) | 0.114
85 | GCTCAGGCTTGGGTTCTAACCTGTTGCCT (site GCTCAGGCTAG) | 0.216
86 | GCTCAGGCTTGGGTTCTAACCTGTTGCCT (site GCTCAGTCTAG) | 0.202
